Here are results for 24 compounds from US10882838B2, “Cannabinergic compounds and uses thereof” (Northeastern University, priority 2012, dated 2021).

The target in one experiment is CB1 receptor (Rattus norvegicus (Rat), UniProt P20272). Kind of experiment: rCB1 competition-equilibrium binding with [3H]CP-55,940, rat brain membranes. As to the method:
Frozen rat brains (CB1 source) are obtained from Pel-Freeze Biologicals (Rogers, Ak.) and stored at −80° C. until use. Membranes are prepared according to the method described by Dodd et al. and used in our laboratory as reported.
(§1) All the cannabinoids discussed in this invention are tested for their ability to bind to CB1 and CB2 receptors using membranes from rat brain or HEK293 cells expressing either mCB2 or hCB2, respectively via competition-equilibrium binding using [^3H]CP-55,940. Results are analyzed using nonlinear regression to determine ligand IC50 (Prism by GraphPad Software, Inc.), and Ki values are calculated from the IC50. IC50 and Ki values are determined from at least three independent experiments.

For a further experiment, the target named is mCB2 receptor (Mus musculus (Mouse), UniProt P47936). Kind of experiment: mCB2 competition-equilibrium binding with [3H]CP-55,940, membranes of HEK293 cells expressing mCB2. As for the experimental part: (§2) HEK293 cells expressing hCB1 or hCB2 or mCB2 receptor are used for membrane preparations according to Abadji et al. The resulting pellet is resuspended in 10 mM Tris-chloride, pH 7.4, with 5 mM MgCl2 and 2 mM EDTA (TME), rapidly frozen in liquid nitrogen and stored at −80° C. for no longer than two months. Protein content is assayed by using the Bio-Rad protein assay according to the manufacturer's protocol.
as §1

Another experiment has as its target hCB2 receptor (Homo sapiens (Human), UniProt P34972). Kind of experiment: hCB2 competition-equilibrium binding with [3H]CP-55,940, membranes of HEK293 cells expressing hCB2. As for the experimental part:
as §2, §1

The mark [1] stands for this setting: rat brain membranes, [3H]CP-55,940, read-out: rCB1 Ki.
Where [2] appears, read: HEK293 cells expressing mCB2, [3H]CP-55,940, read-out: mCB2 Ki.
[3] abbreviates: HEK293 cells expressing hCB2, [3H]CP-55,940, read-out: hCB2 Ki.

Read-outs that look alike come from different tables or passages of the source.

Broadly, the Ki is the dissociation constant of the complex between target and ligand, obtained from inhibition or displacement. Regarding `CC1=CC[C@H]2[C@@H](C1)c1c(O)cc(C(C)(C)C(=O)O)cc1OC2(C)C` [Compound 1.1, 2-((6aS,10aR)-6a,7,10,10a-tetrahydro-1-hydroxy-6,6,9-trimethyl-6H-benzo[c]chromen-3-yl)-2-methylpropanoic Acid], the Ki on CB1 receptor, on mCB2 receptor and on hCB2 receptor was > 10000 nM throughout.

On to `CCCCOC(=O)C(C)(C)c1cc(O)c2c(c1)OC(C)(C)[C@H]1CC=C(C)C[C@@H]21` [Compound 1.4, Butyl-2-((6aS, 10aR)-6a, 7, 10, 10a-tetrahydro-1-hydroxy-6,6,9-trimethyl-6H-benzo[c]chromen-3-yl)-2-methylpropanoate], for which the Ki at CB1 receptor (setting [1]) came out at 0.6 nM; on mCB2 receptor (setting [2]), 0.6 nM; on hCB2 receptor (setting [3]) it was 0.7 nM.

Turning to `CC1=CC[C@H]2[C@@H](C1)c1c(O)cc(C(C)(C)C(=O)OCCCCCBr)cc1OC2(C)C` [Compound 1.5, 5-bromopentyl-2-((6aS,10aR)-6a,7,10,10a-tetrahydro-1-hydroxy-6,6,9-trimethyl-6H-benzo[c]chromen-3-yl)-2-methylpropanoate], the results for the Ki on CB1 receptor (setting [1]), at mCB2 receptor (setting [2]) and on hCB2 receptor (setting [3]) were 1.2 nM, 0.5 nM and 0.6 nM, respectively.

Consider `CC1=CC[C@@H]2[C@@H](C1)c1c(O)cc(C(C)(C)C(=O)OCCCBr)cc1OC2(C)C` [Compound 1.7, 3-bromopropyl-2-((6aR, 10aR)-6a, 7, 10, 10a-tetrahydro-1-hydroxy-6,6,9-trimethyl-6H-benzo[c]chromen-3-yl)-2-methylpropanoate], for which the values for the inhibitory constant (Ki) on CB1 receptor (setting [1]), at mCB2 receptor (setting [2]) and on hCB2 receptor (setting [3]) were 0.8 nM, 1.1 nM and 0.6 nM, respectively.

As to `CC1=CC[C@@H]2[C@@H](C1)c1c(O)cc(C(C)(C)C(=O)OCCCC#N)cc1OC2(C)C` [Compound 1.8, 3-cyanopropyl-2-((6aR,10aR)-6a,7,10,10a-tetrahydro-1-hydroxy-6,6,9-trimethyl-6H-benzo[c]chromen-3-yl)-2-methylpropanoate], the inhibition constant Ki at CB1 receptor (setting [1]) worked out at 0.5 nM; on mCB2 receptor (setting [2]), 0.7 nM; on hCB2 receptor (setting [3]), 1.4 nM.

With `CC1=CC[C@@H]2[C@@H](C1)c1c(O)cc(C(C)(C)C(=O)OCCCN=[N+]=[N-])cc1OC2(C)C` [Compound 1.9, 3-azidopropyl-2-((6aR,10aR)-6a,7,10,10a-tetrahydro-1-hydroxy-6,6,9-trimethyl-6H-benzo[c]chromen-3-yl)-2-methylpropanoate], the results for the inhibitory constant (Ki) on CB1 receptor (setting [1]), at mCB2 receptor (setting [2]) and on hCB2 receptor (setting [3]) were 1 nM, 0.7 nM and 0.8 nM, respectively.

`CC1=CC[C@@H]2[C@@H](C1)c1c(O)cc(C(C)C(=O)O)cc1OC2(C)C` (stereo partly drawn) [Compound 1.11, 2-((6aR,10aR)-1-hydroxy-6,6,9-trimethyl-6a,7,10,10a-tetrahydro-6H-benzo[c]chromen-3-yl)propanoic acid]: the Ki at CB1 receptor (setting [1]), at mCB2 receptor (setting [2]) and at hCB2 receptor (setting [3]) was > 10000 nM in each case.

Consider `CC1=CC[C@@H]2[C@@H](C1)c1c(O)cc([C@@H](C)C(=O)O)cc1OC2(C)C` [Compound 1.13, (R)-2-((6aR,10aR)-1-hydroxy-6,6,9-trimethyl-6a,7,10,10a-tetrahydro-6H-benzo[c]chromen-3-yl)propanoic Acid], for which the Ki at CB1 receptor (setting [1]), at mCB2 receptor (setting [2]) and at hCB2 receptor (setting [3]) was > 10000 nM in each case.

As to `CC1=CC[C@@H]2[C@@H](C1)c1c(O)cc([C@H](C)C(=O)O)cc1OC2(C)C` [Compound 1.15, (S)-2-((6aR,10aR)-1-hydroxy-6,6,9-trimethyl-6a,7,10,10a-tetrahydro-6H-benzo[c]chromen-3-yl)propanoic Acid], the Ki on CB1 receptor (setting [1]), on mCB2 receptor (setting [2]) and on hCB2 receptor (setting [3]) was > 10000 nM each time.

On to `CC1=CC[C@@H]2[C@@H](C1)c1c(O)cc(C3(C(=O)O)CCC3)cc1OC2(C)C` [Compound 1.17, 1-((6aR,10aR)-1-hydroxy-6,6,9-trimethyl-6a,7,10,10a-tetrahydro-6H-benzo[c]chromen-3-yl)cyclobutanecarboxylic Acid], for which the inhibition constant Ki on CB1 receptor (setting [1]), on mCB2 receptor (setting [2]) and on hCB2 receptor (setting [3]) was > 10000 nM throughout.

For the compound `CC1=CC[C@@H]2[C@@H](C1)c1c(O)cc(C3(C(=O)OCCCCN=[N+]=[N-])CCC3)cc1OC2(C)C` [Compound 1.21, 4-azidobutyl 1-((6aR,10aR)-1-hydroxy-6,6,9-trimethyl-6a,7,10,10a-tetrahydro-6H-benzo[c]chromen-3-yl)cyclo Butanecarboxylate], the results for the inhibitory constant (Ki) on CB1 receptor (setting [1]), at mCB2 receptor (setting [2]) and on hCB2 receptor (setting [3]) were 0.9 nM, 1.9 nM and 2.7 nM, respectively.

For the compound `CCCCCCC(O)(CC(=O)O)c1cc(O)c2c(c1)OC(C)(C)[C@@H]1CC=C(C)C[C@@H]21` (stereo partly drawn) [Compound 1.22, 3-hydroxy-3-((6aR,10aR)-1-hydroxy-6,6,9-trimethyl-6a,7,10,10a-tetrahydro-6H-benzo[c]chromen-3-yl)nonanoic Acid], the Ki turned out to be 600 nM on CB1 receptor (setting [1]), 1000 nM at mCB2 receptor (setting [2]) and 1000 nM at hCB2 receptor (setting [3]).

For `CCCCCCC1(c2cc(O)c3c(c2)OC(C)(C)[C@@H]2CC=C(C)C[C@@H]32)CC(=O)O1` (stereo partly drawn) [Compound 1.23, 4-hexyl-4-((6aR,10aR)-1-hydroxy-6,6,9-trimethyl-6a,7,10,10a-tetrahydro-6H-benzo[c]chromen-3-yl)oxetan-2-one], the Ki at CB1 receptor came to 15.9 nM; at mCB2 receptor it was 40.7 nM; at hCB2 receptor, 55.5 nM.

For the compound `CC1=CC[C@@H]2[C@@H](C1)c1c(O)cc(CC(=O)O)cc1OC2(C)C` [Compound 1.26, 2-((6aR,10aR)-6a,7,10,10a-tetrahydro-1-hydroxy-6,6,9-trimethyl-6H-benzo[c]chromen-3-yl)acetic Acid], the inhibitory constant (Ki) at CB1 receptor (setting [1]), on mCB2 receptor (setting [2]) and on hCB2 receptor (setting [3]) was > 10000 nM in each case.

`CCCSC(=O)C(C)(C)c1cc(O)c2c(c1)OC(C)(C)[C@@H]1CC=C(C)C[C@@H]21` [Compound 1.30, S-propyl-2-((6aR,10aR)-6a,7,10,10a-tetrahydro-1-hydroxy-6,6,9-trimethyl-6H-benzo[c]chromen-3-yl)-2-methylpropanethioate]: the Ki on CB1 receptor (setting [1]) stood at 0.5 nM; on hCB2 receptor (setting [3]) it was 0.7 nM.

For `CCCCCNC(=O)C(C)(C)c1cc(O)c2c(c1)OC(C)(C)[C@@H]1CC=C(C)C[C@@H]21` [Compound 1.31, 2-((6aR,10aR)-6a,7,10,10a-tetrahydro-1-hydroxy-6,6,9-trimethyl-6H-benzo[c]chromen-3-yl)-2-methyl-N-pentylpropanamide], the Ki on CB1 receptor (setting [1]) was 6.3 nM; on mCB2 receptor (setting [2]) it was 9.2 nM; at hCB2 receptor (setting [3]) it was 2.8 nM.

As to `CC1=CC[C@@H]2[C@@H](C1)c1c(O)cc(C(C)(C)CO)cc1OC2(C)C` [Compound 1.32, (6aR,10 aR)-3-(1-hydroxy-2-methylpropan-2-yl)-6,6,9-trimethyl-6a,7,10,10a-tetrahydro-6H-benzo[c]chromen-1-ol], the inhibitory constant (Ki) on CB1 receptor (setting [1]) is 447 nM.

In the case of `CCCCC(=O)OCC(C)(C)c1cc(O)c2c(c1)OC(C)(C)[C@@H]1CC=C(C)C[C@@H]21` [Compound 1.33, 2-((6aR, 10aR)-6a,7,10,10a-tetrahydro-1-hydroxy-6,6,9-trimethyl-6H-benzo[c]chromen-3-yl)-2-methyl propylpentanoate], the Ki at CB1 receptor (setting [1]) came out at 0.5 nM; on hCB2 receptor (setting [3]), 1 nM.

For the compound `CCOC(=O)C(C)(C)c1cc(O)c2c(c1)OC(C)(C)[C@@H]1CC=C(C)C[C@@H]21` [Compound 1.35, Ethyl-2-((6aR,10aR)-6a,7,10,10a-tetrahydro-1-hydroxy-6,6,9-trimethyl-6H-benzo[c]chromen-3-yl)-2-methylpropanoate], the figures for the Ki at CB1 receptor (setting [1]), on mCB2 receptor (setting [2]) and at hCB2 receptor (setting [3]) were 2.7 nM, 0.5 nM and 1.5 nM, respectively.

For the compound `CC1=CC[C@@H]2[C@@H](C1)c1c(O)cc(C(C)(C)C(=O)OCCBr)cc1OC2(C)C` [Compound 1.36, 2-bromoethyl-2-((6aR,10aR)-6a,7,10,10a-tetrahydro-1-hydroxy-6,6,9-trimethyl-6H-benzo [c]chromen-3-yl)-2-methylpropanoate], the Ki at CB1 receptor (setting [1]) was found to be 2.9 nM; on mCB2 receptor (setting [2]), 3.2 nM; on hCB2 receptor (setting [3]) it was 7.7 nM.

For the compound `CCCCCCC(C)(C)c1cc(O)c2c(c1)OC(C)(C)[C@@H]1CCOC(=O)C[C@@H]21` [Compound 3.11, (5 aR,11bR)-11-hydroxy-6,6-dimethyl-9-(2-methyloctan-2-yl)-4,5,5a,6-tetrahydro-1H-oxepino[4,5-c]chromen-2(11bH)-one], the inhibitory constant (Ki) was 99 nM on CB1 receptor (setting [1]) and 802 nM at mCB2 receptor (setting [2]).

Take `CCOC(=O)C(C)(C)c1cc(O)c(-c2cccc(C#N)c2)c(O)c1` [Compound 4.2, Ethyl 2-(3′-cyano-2,6-dihydroxybiphenyl-4-yl)-2-methylpropanoate]: the Ki on CB1 receptor (setting [1]) was found to be 3660 nM; at hCB2 receptor (setting [3]), 94.8 nM.

With `CCOC(=O)C(C)(C)c1cc(O)c(-c2cc(Cl)cc(Cl)c2)c(OC)c1` [Compound 4.7, ethyl 2-(3′,5′-dichloro-2-hydroxy-6-methoxybiphenyl-4-yl)-2-methylpropanoate], the Ki at CB1 receptor (setting [1]) is 1000 nM; at hCB2 receptor (setting [3]), 700 nM.

`CCOC(=O)C(C)(C)c1cc(O)c(-c2cc(Cl)cc(Cl)c2)c(O)c1` [Compound 4.8, Ethyl 2-(3′,5′-dichloro-2,6-dihydroxybiphenyl-4-yl)-2-methylpropanoate]: on hCB2 receptor (setting [3]), the Ki came to 20.9 nM.
